Test results taken from ChEMBL document CHEMBL5506020 (J Med Chem, 2024).
Active and inactive are the calls of the source. No cut-off for these calls is given here.

Tests used:
[1] = Antiproliferative activity against human MOLM16 cells incubated for 72 hrs by Cell-Titer Glo assay; settings: MOLM16, 72 h
[2] = tested on: MV4-11; assay: Antiproliferative activity against human MV4-11 cells incubated for 120 hrs by Cell-Titer Glo assay; settings: MV4-11, 120 h
[3] = tested on: MOLM-13; assay: Antiproliferative activity against human MOLM-13 cells incubated for 72 hrs by Cell-Titer Glo assay; settings: MOLM-13, 72 h
[4] = biological target: Protein cereblon/Histone acetyltransferase p300 (Homo sapiens) (UniProt Q09472+Q96SW2); assay: PROTAC activity at CRBN/p300 in human MV4-11 cells assessed as p300 degradation at 10 to 50 nM incubated for 24 hrs by Western blotting analysis; format: cell-based; settings: dose 10-50 nM
[5] = tested on: KG-1; assay: Antiproliferative activity against human KG-1 cells
[6] = tested on: THP-1; assay: Antiproliferative activity against human THP-1 cells
[7] = tested on: EOL1; assay: Antiproliferative activity against human EOL1 cells
[8] = tested on: MV4-11; assay: Antitumor activity against human MV4-11 cells xenografted in NOD-SCID mouse assessed as tumor growth inhibition at 10 mg/kg, po QD for 2 weeks; format: functional; settings: MV4-11, 336 h, read-out: TGI
[9] = tested on: MV4-11; assay: Downregulation of c-Myc protein level in human MV4-11 cells at 50 nM incubated for 24 hrs by Western blotting analysis; format: functional, cell-based
[10] = tested on: MOLM-13; assay: Downregulation of c-Myc protein level in human MOLM-13 cells at 50 nM incubated for 24 hrs by Western blotting analysis; format: functional, cell-based
[11] = tested on: MV4-11; assay: Downregulation of GSPT1 protein level in human MV4-11 cells at 10 nM incubated for 6 hrs by proteomic analysis; format: functional, cell-based
[12] = Toxicity in NOD/SCID mouse xenografted with human MV4-11 cells assessed as aggregation of multinucleated giant cells in spleen at 2 to 5 mg/kg, ip administered every other day for 2 weeks by H and E staining based assay; format: organism-based; settings: in vivo, 336 h, dose 2-5 mg/kg
[13] = Toxicity in NOD/SCID mouse xenografted with human MV4-11 cells assessed as effect on heart at 2 to 5 mg/kg, ip administered every other day for 2 weeks by H and E staining based assay; format: organism-based; settings: in vivo, 336 h, dose 2-5 mg/kg
[14] = tested on: MV4-11; assay: Downregulation of TP53RK protein in human MV4-11 cells at 10 nM incubated for 6 hrs by proteomic analysis; format: functional, cell-based
[15] = tested on: MV4-11; assay: Downregulation of STAT1 protein in human MV4-11 cells at 10 nM incubated for 6 hrs by proteomic analysis; format: functional, cell-based
[16] = tested on: MV4-11; assay: Downregulation of STAT2 protein in human MV4-11 cells at 10 nM incubated for 6 hrs by proteomic analysis; format: functional, cell-based
[17] = tested on: MV4-11; assay: Downregulation of CBP mRNA level in human MV4-11 cells at 100 nM incubated for 6 hrs by qRT-PCR analysis; format: functional, cell-based
[18] = tested on: THP-1; assay: Antiproliferative activity against human THP-1 cells upto 10 uM; format: functional, cell-based
[19] = Toxicity in NOD/SCID mouse xenografted with human MV4-11 cells assessed as body weight loss at 2 to 5 mg/kg, ip administered every other day for 2 weeks; format: organism-based; settings: in vivo, 336 h, dose 2-5 mg/kg
[20] = tested on: MOLM-16; assay: Downregulation of c-Myc protein level in human MOLM16 cells at 50 nM incubated for 24 hrs by Western blotting analysis; format: functional, cell-based
[21] = tested on: MV4-11; assay: Downregulation of ZFP91 protein level in human MV4-11 cells at 10 nM incubated for 6 hrs by proteomic analysis; format: functional, cell-based
[22] = tested on: MV4-11; assay: Downregulation of BRD2 protein level in human MV4-11 cells at 10 nM incubated for 6 hrs by proteomic analysis; format: functional, cell-based
[23] = tested on: Mus musculus; assay: In vivo induction of p300 degradation in NOD/SCID mouse tumor xenografted with human MV4-11 cells at 2 to 5 mg/kg, ip administered every other day for 2 weeks by immunoblotting analysis; format: functional, organism-based; settings: dose 2-5 mg/kg
[24] = tested on: KG-1; assay: Antiproliferative activity against human KG-1 cells upto 10 uM; format: functional, cell-based
[25] = tested on: MV4-11; assay: Downregulation of IRF4 protein in human MV4-11 cells at 10 nM incubated for 6 hrs by proteomic analysis; format: functional, cell-based
[26] = tested on: Mus musculus; assay: In vivo induction of CBP degradation in NOD/SCID mouse tumor xenografted with human MV4-11 cells at 2 to 5 mg/kg, ip administered every other day for 2 weeks by immunoblotting analysis; format: functional, organism-based; settings: dose 2-5 mg/kg
[27] = tested on: EOL1; assay: Antiproliferative activity against human EOL1 cells upto 10 uM; format: functional, cell-based
[28] = tested on: MV4-11; assay: Downregulation of BRD3 protein level in human MV4-11 cells at 10 nM incubated for 6 hrs by proteomic analysis; format: functional, cell-based
[29] = Toxicity in NOD/SCID mouse xenografted with human MV4-11 cells assessed as lymphocyte infiltration in liver at 2 to 5 mg/kg, ip administered every other day for 2 weeks by H and E staining based assay; format: organism-based; settings: in vivo, 336 h, dose 2-5 mg/kg
[30] = tested on: MV4-11; assay: Antitumor activity against human MV4-11 cells xenografted in NOD-SCID mouse assessed as tumor growth inhibition at 2 mg/kg, ip administered every other day for 2 weeks; format: functional; settings: MV4-11, 336 h, read-out: TGI
[31] = tested on: MV4-11; assay: Downregulation of KRAS protein in human MV4-11 cells at 10 nM incubated for 6 hrs by proteomic analysis; format: functional, cell-based
[32] = tested on: MV4-11; assay: Downregulation of p300 mRNA level in human MV4-11 cells at 100 nM incubated for 6 hrs by qRT-PCR analysis; format: functional, cell-based
[33] = Toxicity in NOD/SCID mouse xenografted with human MV4-11 cells assessed as effect on kidney at 2 to 5 mg/kg, ip administered every other day for 2 weeks by H and E staining based assay; format: organism-based; settings: in vivo, 336 h, dose 2-5 mg/kg
[34] = tested on: MV4-11; assay: Downregulation of BRD4 protein level in human MV4-11 cells at 10 nM incubated for 6 hrs by proteomic analysis; format: functional, cell-based
[35] = tested on: MV4-11; assay: Downregulation of TRIM24 protein level in human MV4-11 cells at 10 nM incubated for 6 hrs by proteomic analysis; format: functional, cell-based
[36] = tested on: MV4-11; assay: Downregulation of IKZF1 level in human MV4-11 cells at 10 uM incubated for 6 hrs by Western blotting analysis; format: functional, cell-based
[37] = tested on: MV4-11; assay: Downregulation of SMARCA4 protein level in human MV4-11 cells at 10 nM incubated for 6 hrs by proteomic analysis; format: functional, cell-based
[38] = Toxicity in NOD/SCID mouse xenografted with human MV4-11 cells assessed as effect on lung at 2 to 5 mg/kg, ip administered every other day for 2 weeks by H and E staining based assay; format: organism-based; settings: in vivo, 336 h, dose 2-5 mg/kg
[39] = tested on: MV4-11; assay: Downregulation of IKZF1 mRNA level in human MV4-11 cells at 100 nM incubated for 6 hrs by qRT-PCR analysis; format: functional, cell-based
[40] = tested on: MV4-11; assay: Downregulation of CDK5 protein in human MV4-11 cells at 10 nM incubated for 6 hrs by proteomic analysis; format: functional, cell-based
[41] = tested on: MV4-11; assay: Antitumor activity against human MV4-11 cells xenografted in NOD-SCID mouse assessed as tumor growth inhibition at 5 mg/kg, ip administered every other day for 2 weeks; format: functional; settings: MV4-11, 336 h, read-out: TGI

Protein cereblon/Histone acetyltransferase p300 (Homo sapiens), sequence (Q09472 2-2414 limits assumed): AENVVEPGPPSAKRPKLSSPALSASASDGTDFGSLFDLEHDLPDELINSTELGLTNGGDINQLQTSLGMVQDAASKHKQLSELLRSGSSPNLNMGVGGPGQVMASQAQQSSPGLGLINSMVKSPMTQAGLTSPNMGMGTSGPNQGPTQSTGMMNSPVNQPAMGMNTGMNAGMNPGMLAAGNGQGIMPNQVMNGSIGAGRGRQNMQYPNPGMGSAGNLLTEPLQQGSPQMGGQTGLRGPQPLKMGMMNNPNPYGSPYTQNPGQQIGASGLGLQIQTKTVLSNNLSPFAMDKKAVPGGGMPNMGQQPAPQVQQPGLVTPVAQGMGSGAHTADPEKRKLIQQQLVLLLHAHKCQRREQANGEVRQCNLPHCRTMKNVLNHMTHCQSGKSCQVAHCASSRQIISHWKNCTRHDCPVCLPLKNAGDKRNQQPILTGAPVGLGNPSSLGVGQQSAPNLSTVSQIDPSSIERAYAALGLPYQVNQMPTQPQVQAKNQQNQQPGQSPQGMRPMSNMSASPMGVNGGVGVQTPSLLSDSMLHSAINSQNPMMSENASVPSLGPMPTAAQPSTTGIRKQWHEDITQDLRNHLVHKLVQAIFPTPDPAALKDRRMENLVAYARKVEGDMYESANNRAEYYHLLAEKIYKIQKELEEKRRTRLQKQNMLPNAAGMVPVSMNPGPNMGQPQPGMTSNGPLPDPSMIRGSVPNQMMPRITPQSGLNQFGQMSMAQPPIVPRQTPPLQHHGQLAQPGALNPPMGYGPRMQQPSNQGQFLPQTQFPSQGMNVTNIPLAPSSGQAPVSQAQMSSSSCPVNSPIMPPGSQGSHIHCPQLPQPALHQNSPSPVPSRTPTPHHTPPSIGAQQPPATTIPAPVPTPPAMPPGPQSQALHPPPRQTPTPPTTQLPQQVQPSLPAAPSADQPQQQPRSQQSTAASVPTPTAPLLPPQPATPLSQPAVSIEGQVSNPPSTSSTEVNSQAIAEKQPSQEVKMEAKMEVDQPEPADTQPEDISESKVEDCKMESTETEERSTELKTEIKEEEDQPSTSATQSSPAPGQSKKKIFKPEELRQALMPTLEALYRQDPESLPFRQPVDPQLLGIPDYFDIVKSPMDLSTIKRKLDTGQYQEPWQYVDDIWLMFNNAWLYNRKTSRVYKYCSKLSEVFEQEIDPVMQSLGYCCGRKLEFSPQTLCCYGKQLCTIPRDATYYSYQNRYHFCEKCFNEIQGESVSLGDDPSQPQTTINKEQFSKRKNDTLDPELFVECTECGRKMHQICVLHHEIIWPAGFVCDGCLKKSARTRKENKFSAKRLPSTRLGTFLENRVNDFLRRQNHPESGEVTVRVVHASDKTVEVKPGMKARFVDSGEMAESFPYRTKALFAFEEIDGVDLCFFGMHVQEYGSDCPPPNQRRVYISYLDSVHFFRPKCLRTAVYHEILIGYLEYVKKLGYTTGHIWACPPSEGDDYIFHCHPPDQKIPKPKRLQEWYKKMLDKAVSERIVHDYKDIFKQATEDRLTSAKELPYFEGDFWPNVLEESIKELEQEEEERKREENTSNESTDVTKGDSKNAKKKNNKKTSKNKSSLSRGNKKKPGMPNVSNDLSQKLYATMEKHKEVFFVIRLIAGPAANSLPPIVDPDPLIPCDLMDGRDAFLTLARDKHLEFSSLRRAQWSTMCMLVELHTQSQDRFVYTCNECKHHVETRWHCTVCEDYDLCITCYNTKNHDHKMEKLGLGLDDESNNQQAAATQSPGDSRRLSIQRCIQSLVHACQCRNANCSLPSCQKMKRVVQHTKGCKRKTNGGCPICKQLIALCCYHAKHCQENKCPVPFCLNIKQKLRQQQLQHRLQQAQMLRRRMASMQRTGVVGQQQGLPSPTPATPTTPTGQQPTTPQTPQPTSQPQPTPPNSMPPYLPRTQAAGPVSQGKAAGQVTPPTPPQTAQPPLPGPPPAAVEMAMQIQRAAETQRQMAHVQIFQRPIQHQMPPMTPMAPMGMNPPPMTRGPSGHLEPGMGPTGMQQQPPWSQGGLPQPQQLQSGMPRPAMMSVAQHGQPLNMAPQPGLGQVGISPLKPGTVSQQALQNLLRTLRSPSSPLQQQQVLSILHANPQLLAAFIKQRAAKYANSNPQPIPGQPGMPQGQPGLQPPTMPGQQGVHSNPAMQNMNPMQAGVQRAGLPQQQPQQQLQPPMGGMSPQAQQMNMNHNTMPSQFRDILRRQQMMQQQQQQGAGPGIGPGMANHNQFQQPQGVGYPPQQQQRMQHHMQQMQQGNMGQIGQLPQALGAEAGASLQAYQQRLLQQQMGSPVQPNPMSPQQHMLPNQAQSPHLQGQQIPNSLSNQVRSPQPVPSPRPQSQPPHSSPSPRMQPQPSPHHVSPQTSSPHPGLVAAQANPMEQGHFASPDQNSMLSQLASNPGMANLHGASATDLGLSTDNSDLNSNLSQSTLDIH
Protein cereblon/Histone acetyltransferase p300 (Homo sapiens), sequence (Q96SW2 whole entry partner): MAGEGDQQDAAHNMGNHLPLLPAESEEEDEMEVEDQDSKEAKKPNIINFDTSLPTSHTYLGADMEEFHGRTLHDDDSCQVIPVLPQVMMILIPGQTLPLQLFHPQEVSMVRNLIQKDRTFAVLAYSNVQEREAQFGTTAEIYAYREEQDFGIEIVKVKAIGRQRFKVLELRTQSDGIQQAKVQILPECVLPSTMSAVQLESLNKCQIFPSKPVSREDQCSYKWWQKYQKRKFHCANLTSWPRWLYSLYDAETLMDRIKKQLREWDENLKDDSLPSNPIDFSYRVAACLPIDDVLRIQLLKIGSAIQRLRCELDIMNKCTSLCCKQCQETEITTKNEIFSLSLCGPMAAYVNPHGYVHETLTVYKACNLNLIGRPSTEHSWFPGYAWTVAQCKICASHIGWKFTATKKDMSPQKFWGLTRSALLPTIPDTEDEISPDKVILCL

SMILES: Cc1noc(C)c1-c1ccc2c(c1)nc([C@@H]1CCCC(=O)N1c1ccc(F)c(F)c1)n2C1CCN(CC(=O)Nc2cnc(-c3ccc(CNc4cccc5c4C(=O)N(C4CCC(=O)N(C)C4=O)C5=O)cc3)nc2)CC1 (stereo partly drawn)
- IC50 [1]: 45.8 nM
- IC50 [2]: 44.2 nM
- IC50 [3]: > 1000 nM

SMILES: Cc1noc(C)c1-c1ccc2c(c1)nc([C@@H]1CCCC(=O)N1c1ccc(F)c(F)c1)n2C1CCN(CC(=O)NCCCCCCCCNc2cccc3c2C(=O)N(C2CCC(=O)NC2=O)C3=O)CC1 (stereo partly drawn)
- IC50 [2]: 218 nM
- Activity [4]: Active

SMILES: Cc1noc(C)c1-c1ccc2c(c1)nc([C@@H]1CCCC(=O)N1c1ccc(F)c(F)c1)n2C1CCN(CC(=O)NCCCCCNc2cccc3c2C(=O)N(C2CCC(=O)NC2=O)C3=O)CC1 (stereo partly drawn)
- IC50 [2]: 464 nM
- Activity [4]: Active

SMILES: Cc1noc(C)c1-c1ccc2c(c1)nc([C@@H]1CCCC(=O)N1c1ccc(F)c(F)c1)n2C1CCN(CC(=O)NCCCCCNc2ccc3c(c2)C(=O)N(C2CCC(=O)NC2=O)C3=O)CC1 (stereo partly drawn)
- IC50 [2]: 1010 nM
- Activity [4]: inactive

SMILES: Cc1noc(C)c1-c1ccc2c(c1)nc([C@@H]1CCCC(=O)N1c1ccc(F)c(F)c1)n2C1CCN(CC(=O)NCCCCCCCCCCNc2cccc3c2C(=O)N(C2CCC(=O)NC2=O)C3=O)CC1 (stereo partly drawn)
- IC50 [2]: 606 nM
- Activity [4]: Active

SMILES: Cc1noc(C)c1-c1ccc2c(c1)nc([C@@H]1CCCC(=O)N1c1ccc(F)c(F)c1)n2C1CCN(CC(=O)NCCCCCCNc2cccc3c2C(=O)N(C2CCC(=O)NC2=O)C3=O)CC1 (stereo partly drawn)
- IC50 [2]: 405 nM
- Activity [4]: Active

SMILES: CO[C@H]1CC[C@H](n2c([C@@H]3CCCC(=O)N3c3ccc(F)c(F)c3)nc3cc(-c4c(C)noc4C)ccc32)CC1 [INOBRODIB]
- IC50 [5]: < 3000 nM
- IC50 [6]: < 3000 nM
- IC50 [7]: < 3000 nM
- IC50 [1]: 12.9 nM
- inhibition in vivo at 10 mg/kg [8]: 65%
- IC50 [2]: 20.4 nM
- IC50 [3]: 102 nM

SMILES: Cc1noc(C)c1-c1ccc2c(c1)nc([C@@H]1CCCC(=O)N1c1ccc(F)c(F)c1)n2C1CCN(CC(=O)Nc2ccc(-c3ccc(CNc4cccc5c4C(=O)N(C4CCC(=O)NC4=O)C5=O)cc3)nc2)CC1 (stereo partly drawn)
- Activity [9]: Active
- Activity [10]: Active
- Activity [11]: inactive
- Activity [12]: Toxic
- Activity [13]: Non-Toxic
- Activity [14]: Active
- Activity [15]: Active
- Activity [16]: Active
- Activity [17]: inactive
- Activity [18]: inactive
- Activity [19]: Non-Toxic
- Activity [20]: Active
- Activity [21]: inactive
- IC50 [1]: 4.6 nM
- Activity [22]: inactive
- Activity [23]: Active
- Activity [24]: inactive
- Activity [25]: Active
- Activity [26]: Active
- Activity [27]: inactive
- Activity [28]: inactive
- Activity [29]: Toxic
- inhibition in vivo at 2 mg/kg [30]: 53%
- Activity [31]: Active
- Activity [32]: inactive
- Activity [33]: Non-Toxic
- Activity [34]: inactive
- Activity [35]: inactive
- Activity [36]: Active
- Activity [37]: inactive
- IC50 [2]: 1.8 nM
- IC50 [3]: 26.9 nM
- Activity [38]: Non-Toxic
- Activity [39]: Active
- Activity [40]: Active
- inhibition in vivo at 5 mg/kg [41]: 88%

SMILES: Cc1noc(C)c1-c1ccc2c(c1)nc([C@@H]1CCCC(=O)N1c1ccc(F)c(F)c1)n2C1CCN(CC(=O)N2CCC(CN3CCN(c4cccc5c4C(=O)N(C4CCC(=O)NC4=O)C5=O)CC3)CC2)CC1 (stereo partly drawn)
- IC50 [2]: 266 nM
- Activity [4]: inactive
